Reference: patent publication US20030207830A1, “Mutant NDP kinases for antiviral nucleotide analog activation and therapeutic uses thereof” (priority 2002, published 2003)

Tests used:
[1] = molecular target: T1, Dictyostelium NDP Kinase N119S (Dictyostelium discoideum, UniProt P22887, N119S); experiment: Pre-steady-state fluorescence stopped-flow phosphotransfer from nucleoside triphosphates, N119S Dd-NDPK; format: biochemical; conditions: for times faster reaction with the N119S enzyme than wild type: from Table I; for k2/Ks N119S (catalytic efficiency of phosphotransfer): pre-steady state, stopped-flow, average of three determinations
T1 construct: made in house
Description: (§1) All numbers in italics have already been published (Schneider, 1998, 2000) The kinetic constants were measured at the pre-steady-state level using a fluorescence stopped-flow device. The binding constants were determined at equilibrium by recording the increase in fluorescence (Schneider, 2000). Values are the average of three independent determinations.
As the diphosphate form of analogs were not always available, the triphosphate analogs were used to study phosphate transfer in reaction as in Scheme I. Experiments were performed with an Hi-Tech DX2 microvolume stopped-flow reaction (Schneider, 1998) at Aexc=296 nm (for Ado derivatives) or […] (for other nucleotides), 2 mm excitation slit and a 320 nm cutoff filter at the emission. After mixing NDPK (1 μM) and NTP or an analogTP (10-500 μM), the intrinsic protein fluorescence was recorded for 10-200 sec. In each experiment, 400 pairs of data were recorded, and the data from 3-4 identical experiments were averaged and fitted to a number of non-linear analytical equations using the software provided by Hi-Tech. All curves fitted to single exponentials.
The data were analyzed using the reaction scheme: [drawing 1]
In both the forward and the reverse reactions, the product concentration remains very low, thus the product binding can be neglected, and the observed single step could be attributed to the phosphotransfer (Schneider, 1998). The rate of this observed single step is: [formula]
and reaches a limiting value (k+2) at NTP saturation. Saturation could not be obtained with the concentrations of any NTP used here. Therefore, catalytic efficiencies of phosphorylation (CEphos=k+2/(k−1/k+1)=k+2/KS) were measured, which are equivalent to second order constants and allow a reliable comparison of a variety of NDP kinase substrates.

[2] = molecular target: T2, Inactive-N119S Dd-NDPK (EI-N119S) (Dictyostelium discoideum, UniProt P22887, F64W/H122G/N119S); experiment: Equilibrium fluorescence titration of nucleotide binding, inactive Dd-NDPK variant with N119S; conditions: relative affinity of NTP for both enzymes
T2 construct: made in house
Description: as §1
In contrast to what is observed with natural nucleotides, the Ser mutation specifically improves the catalytic efficiency with nucleotides analogs as shown in Table I; ddGTPs and AZT-TP react, respectively, 1.5 and 4 times faster with the N119S enzyme. […] Analog binding affinity was measured using a variant of Dd-NDPK (EI) as described (Schneider, 2000). This mutant (H122G-F64W) lacks the catalytic histidine, and a tryptophan replaces the phenylalanine stacking on the base in the active site (Schneider, 2000). The mutation N119S was inserted in EI in order to measure the nucleotide affinity by fluorescence titration. The Ser contribution to the binding was evaluated from the relative affinity of NTP for both enzymes (Table I).
for N119S, N119T and N119Y mutations, respectively. Altered bases as compared to the wild type sequence are underlined in bold. Sequences were checked by automatic sequencing. The mutant EI-N119S was obtained by mutation of the previously described F64W-H122G mutated NDP kinase (here called EI) (Schneider 2000).

[3] = molecular target: T3, Dictyostelium discoideum NDP kinase inactive variant EI (H122G-F64W) (Dictyostelium discoideum, UniProt P22887, F64W/H122G); experiment: biochemical; format: binding
T3 construct: made in house
Description: (§2) The binding constants were determined at equilibrium by recording the increase in fluorescence (Schneider, 2000).
(§3) Analog binding affinity was measured using a variant of Dd-NDPK (EI) as described (Schneider, 2000). […] The mutation N119S was inserted in EI in order to measure the nucleotide affinity by fluorescence titration.
(§4) Altered bases as compared to the wild type sequence are underlined in bold. Sequences were checked by automatic sequencing. The mutant EI-N119S was obtained by mutation of the previously described F64W-H122G mutated NDP kinase (here called EI) (Schneider 2000).

[4] = molecular target: T4, Dictyostelium discoideum NDP kinase inactive variant EI-N119S (H122G-F64W-N119S) (Dictyostelium discoideum, UniProt P22887, F64W/H122G/N119S); experiment: biochemical; format: binding; conditions: for increase of affinity by Ser (N119S): relative KD, EI versus EI-N119S
T4 construct: made in house
Description: as §2, §3, §4

[5] = molecular target: T5, human NDP kinase A (NDPK-A) variant L55H-N115S, SEQ ID NO: 3 (Homo sapiens, UniProt P15531, L55H/N115S); experiment: Pre-steady-state phosphotransfer, fluorescence stopped-flow; format: biochemical; conditions: for k2/Ks: catalytic efficiency of phosphotransfer, L55H-N115S, pre-steady state; for Specificity change (R): ratio of catalytic efficiencies analog vs natural nucleotide, mutant vs wild type
T5 construct: made in house; host or cells: E. coli

[6] = molecular target: T6, human NDP kinase A (NDPK-A) variant N115S, SEQ ID NO: 2 (Homo sapiens, UniProt P15531, N115S); experiment: as above; format: biochemical; conditions: for k2/Ks: catalytic efficiency of phosphotransfer, N115S, pre-steady state; for Specificity change (R): ratio of catalytic efficiencies analog vs natural nucleotide, mutant vs wild type
T6 construct: made in house; host or cells: E. coli
T6 sequence (P15531 whole entry N115S): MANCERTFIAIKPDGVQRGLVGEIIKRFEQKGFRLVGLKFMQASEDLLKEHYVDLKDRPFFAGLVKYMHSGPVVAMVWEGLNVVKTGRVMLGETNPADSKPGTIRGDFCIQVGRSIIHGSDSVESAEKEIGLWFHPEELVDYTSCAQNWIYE

T1 sequence (P22887 whole entry N119S): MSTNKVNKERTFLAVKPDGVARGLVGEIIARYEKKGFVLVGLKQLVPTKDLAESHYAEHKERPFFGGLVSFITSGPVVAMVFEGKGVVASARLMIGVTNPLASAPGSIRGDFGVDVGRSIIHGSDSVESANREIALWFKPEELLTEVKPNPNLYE
T4 sequence (P22887 whole entry F64W/N119S/H122G): as the sequence (P22887 whole entry N119S) above, with F64W, H122G counted along it
T5 sequence (P15531 whole entry L55H/N115S): as the sequence (P15531 whole entry N115S) above, with L55H counted along it
T3 sequence (P22887 whole entry F64W/H122G): as the sequence (P22887 whole entry N119S) above, with F64W, S119N, H122G counted along it
T2 sequence (P22887 whole entry F64W/N119S/H122G): as the sequence (P22887 whole entry N119S) above, with F64W, H122G counted along it

Structure (SMILES) | times faster reaction with the N119S enzyme than wild type [1] | k2/Ks N119S (catalytic efficiency of phosphotransfer) [1] | factor by which Ser 119 reinforces affinity (EI-N119S versus EI) [2] | Kd [3] | Kd [4] | increase of affinity by Ser (N119S) [4] | k2/Ks [5] | Specificity change (R) [5] | k2/Ks [6] | Specificity change (R) [6]
Cc1cn([C@H]2C[C@H](N=[N+]=[N-])[C@@H](COP(=O)(O)OP(=O)(O)OP(=O)(O)O)O2)c(=O)[nH]c1=O [AZT-TP] | 4 times | 1100 M⁻¹ s⁻¹ | 15 fold | 30000 nM | 2200 nM | 15 fold | 6770 M⁻¹ s⁻¹ | (240) | 900 M⁻¹ s⁻¹ | (125)
Nc1nc2c(ncn2[C@H]2CC[C@@H](COP(=O)(O)OP(=O)(O)OP(=O)(O)O)O2)c(=O)[nH]1 [ddGTP, dideoxy-GTP] | 1.5 times | 3500 M⁻¹ s⁻¹ | 2 fold | 3500 nM | 2000 nM | 2 fold | 4200 M⁻¹ s⁻¹ | (160) | 750 M⁻¹ s⁻¹ | (60)
